In brackets after ≈: the same amount, converted by molar mass.
How the values were obtained:
Human alphaherpesvirus 3 = test: Antiviral activity against Varicella-zoster virus Ellen VR-1367 infected in African green monkey Vero cells after 3 days by MTT assay; assay type: functional, organism-based; settings: Human alphaherpesvirus 3, Ellen VR-1367, Vero, 72 h
Human alphaherpesvirus 2 = test: Antiviral activity against Herpes simplex virus 2 strain MS VR-540 infected in African green monkey Vero cells after 3 days by MTT assay; assay type: functional, organism-based; settings: Human alphaherpesvirus 2, MS VR-540, Vero, 72 h
[1] = Cytotoxicity against human HEL299 cells after 3 days by MTT assay; assay type: cell-based, HEL 299
[2] = Solubility of compound in double-deionized water after 3 days by LC-MS/MS analysis; assay type: physicochemical
Human alphaherpesvirus 1 = test: Antiviral activity against Herpes simplex virus 1 strain F VR-733 infected in African green monkey Vero cells after 3 days by MTT assay; assay type: functional, organism-based; settings: Human alphaherpesvirus 1, Strain F ATCC VR 733, Vero, 72 h
Human betaherpesvirus 5 = test: Antiviral activity against Human cytomegalovirus Davis VR-807 infected in […] after 3 days by MTT assay; assay type: functional, organism-based; settings: Human betaherpesvirus 5, Davis VR-807, 72 h

Structure (SMILES)	EC50 (Human alphaherpesvirus 3) [µM]	EC50 (Human alphaherpesvirus 2) [µM]	CC50 at 72 h [1] [µM]	solubility at 72 h [2] [µg/mL]	EC50 (Human alphaherpesvirus 1) [µM]	EC50 (Human betaherpesvirus 5) [µM]
Nc1nc2c(ncn2C[Se]CCO)c(=O)[nH]1	> 100	6.34	> 100	1060 (≈ 3.68 mM)	1.47	> 100
Nc1nc2c(ncn2C[Se]C(CO)CO)c(=O)[nH]1	> 100	> 100	> 100	2230 (≈ 7.01 mM)	> 100	53.1
Nc1nc2c(ncn2COCCO)c(=O)[nH]1 [ACYCLOVIR]	6.4	1.02	> 100	3920 (≈ 17.4 mM)	0.66	18.9
Nc1nc2c(ncn2COC(CO)CO)c(=O)[nH]1 [GANCICLOVIR]	11.1	1.4	> 100	4960 (≈ 19.4 mM)	0.9	2.14
